Assay results taken from US20060084704A1, “Methods and compositions for enhancing degradation of nuclear receptor transcription factors and uses thereof” (priority 2004, published 2006).

How the values were obtained:
LNCaP tumor cells = assay: In vivo LNCaP xenograft tumor growth in nude mice; details: JC9 100 mg/kg/day ip three times per week, 7 weeks
Method: In related in vivo studies, LNCap human prostate tumor cells are xenografted by subcutaneous injection (2×10^6 per site) into nude mice. Mice are subsequently treated by intraperitoneal injection of either the vehicle solution alone as a control or the test compounds (JC9)) at a dose of 100 milligrams per kilogram body weight, three times a week for 7 weeks. Tumor volume is measured twice a week over the next 7 weeks. […] Such results can be taken as a strong indication that the suppression of AR activity and the resulting reduction of tumor growth induced by AR-degrading compounds such as JC15 or by JC9, may be translated into a practical use for treating or preventing diseases and disorders related to AR activity, such as prostate and other cancers.
Two million LNCaP tumor cells were inoculated, subcutaneously, into the left flank of nude mice. In the experimental animals, the nude mice were give an intraperitoneal (ip) injection of compound JC9 at 100 mg/kg/day three times per week or with vehicle control only. After 7 weeks of treatment the tumors were excised, weighed and compared. The tumor weight in ratio of vehicle control to JC9 was 0.694 g:0.172 g.

[1] = system: prostate-specific antigen (PSA); assay: Western blot of LNCaP cell lysates, PSA; type: cell-based, human; details: 1 or 2 micromolar, 24 hours, presence or absence of DHT
Method: (§1) Human prostate cancer LNCaP cells and T47D cells were plated at a density of 7×10^5 cells per 60 millimeter tissue culture dish in […] (RPMI) medium containing 10% FBS. The medium was changed to RPMI or DME medium containing 10% charcoal-stripped serum 24 hours later to deplete cellular androgens or estrogens. After another 24 hours, treatment with the test compounds began. The test dose of JC15 was 1 or 2 micromolar and the test does of JC9 was 1, 5 and 10 micromolar. LNCap cells also received dihydrotestosterone (DHT) (3 nanomolar). Control cells received a corresponding amount of the vehicle, dimethylsulfoxide (DMSO) (<0.04%) for an equivalent exposure time. Cells were incubated with JC15 for 24 or 48 hours, and were lysed in 250 microliters of 1×SDS/PAGE loading buffer. Approximately 40 micrograms of total cellular protein was loaded in each lane of a pre-cast gel (NuPAGE, Invitrogen). Protein separation and transfer were performed following the manufacturer's instructions.
(§2) For the prostate cell lysates, androgen receptor (AR) protein was visualized by incubating the resultant membranes with an anti-AR antibody (BD-PharMingen), followed by chemiluminescence detection (ECL Plus, Amersham). […] The resultant protein signals were quantified using densitometry and NIH ImageJ software.

PPAR beta = biological target: T1, PPAR beta (Homo sapiens, UniProt Q03181); assay: Western blot of LNCaP cell lysates, PPAR beta; type: cell-based; details: 1 or 2 micromolar, 24 hours, presence or absence of DHT
T1 construct: endogenous in cells; host or cells: LNCaP
T1 sequence (Q03181 1-441): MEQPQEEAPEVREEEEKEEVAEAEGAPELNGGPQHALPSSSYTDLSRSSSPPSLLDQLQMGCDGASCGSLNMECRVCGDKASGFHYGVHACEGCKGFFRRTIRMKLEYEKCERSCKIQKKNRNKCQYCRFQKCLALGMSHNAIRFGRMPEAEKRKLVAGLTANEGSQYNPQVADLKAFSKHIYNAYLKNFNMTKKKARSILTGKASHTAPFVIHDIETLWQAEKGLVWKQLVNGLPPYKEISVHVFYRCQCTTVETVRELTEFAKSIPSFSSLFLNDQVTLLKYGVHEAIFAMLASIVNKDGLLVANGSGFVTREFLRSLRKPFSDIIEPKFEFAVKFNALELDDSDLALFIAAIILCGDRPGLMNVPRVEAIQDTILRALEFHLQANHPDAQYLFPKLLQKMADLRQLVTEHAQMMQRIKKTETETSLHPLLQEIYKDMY
Method: as §1, §2

hsp70 = assay: Western blot of LNCaP cell lysates, hsp70; type: cell-based, human; details: 1 or 2 micromolar, 24 hours, presence or absence of DHT
Method: as §1, §2

PPAR gamma = biological target: T2, PPAR gamma (Homo sapiens, UniProt P37231); assay: Western blot of LNCaP cell lysates, PPAR gamma; type: cell-based; details: 1 or 2 micromolar, 24 hours, presence or absence of DHT
T2 construct: endogenous in cells; host or cells: LNCaP
T2 sequence (P37231 1-505): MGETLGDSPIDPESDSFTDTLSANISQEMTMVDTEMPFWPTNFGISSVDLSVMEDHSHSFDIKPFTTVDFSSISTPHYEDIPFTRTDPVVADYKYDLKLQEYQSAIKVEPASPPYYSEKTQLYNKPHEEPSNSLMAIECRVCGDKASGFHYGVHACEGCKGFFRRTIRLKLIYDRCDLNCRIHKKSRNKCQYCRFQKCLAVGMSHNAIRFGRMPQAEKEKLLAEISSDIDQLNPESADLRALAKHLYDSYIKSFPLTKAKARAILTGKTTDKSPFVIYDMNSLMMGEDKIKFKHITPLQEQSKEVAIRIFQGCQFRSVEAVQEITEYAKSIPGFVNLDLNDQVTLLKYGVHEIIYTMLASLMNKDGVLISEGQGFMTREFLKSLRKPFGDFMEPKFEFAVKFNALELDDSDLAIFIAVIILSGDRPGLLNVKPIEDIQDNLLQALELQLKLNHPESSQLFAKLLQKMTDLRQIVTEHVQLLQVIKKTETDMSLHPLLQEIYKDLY
Method: as §1, §2

cellular concentration of PPAR beta (PPAR beta)	cellular concentration of PPAR gamma (PPAR gamma)	SMILES	reduction in tumor size compared to vehicle control (LNCaP tumor cells)	tumor weight (LNCaP tumor cells)	PSA levels [1]	cellular concentration of hsp70 (hsp70)
–	–	COc1ccc(C=CC(=O)C=C(O)C=Cc2ccc(OC)c(OC)c2)cc1OC [JC9, 5-hydroxy-1,7-bis(3,4-dimethoxyphenyl)-1,4,6-heptatrien-3-one]	75%	0.172 g	–	–
did not substantially affect	did not substantially affect	CCOC(=O)CCC(C(=O)C=Cc1ccc(O)c(OC)c1)C(=O)C=Cc1ccc(O)c(OC)c1 (stereo not drawn) [JC15, 7-(4-hydroxy-3-methoxyphenyl)-4-[3-(4-hydroxy-3-methoxyphenyl)acryloyl]-5-oxo-hept-6-enoic acid ethyl ester]	–	–	decreased	did not substantially affect
